pIC50: −log10 of the molar value.
Assays:
Experiment in all cases: ATP-based CTG (Cell Titer Glo) cell viability assay, 72 h
[1] = tested on: WM-266-4 cells expressing mutant MEK1C121S; details: Homo sapiens, WM-266-4 MEK1C121S, single agent
Experimental: (§1) Compound stocks are prepared in DMSO at a final concentration of 10 mM. Working stocks are serially diluted in the appropriate cell culture medium in 3-fold increments to achieve final assay concentrations ranging from 2.7 μM to 1.2 nM.
(§2) A-375 and WM-266-4 cells were purchased from American Type Culture Collection (ATCC). The A-375 cells were cultured in DMEM medium (ATCC) and the WM-266-4 cells were cultured in EMEM medium (ATCC) both supplemented with 10% fetal bovine serum (Gibco) and incubated at 37° C./5% CO2. The cell lines engineered to express commonly occurring alleles indicative of resistance were acquired from Novartis-Emeryville. These resistant models include, A-375 cells expressing mutant MEK1P124L, truncated p61-BRAFV600E, or mutant NRASQ61K, and WM-266-4 cells expressing mutant MEK1C121S, truncated p61-BRAFV600E, or mutant NRASQ61K. These cells were cultured in the appropriate parental medium with selection marker G418 and in the presence of 5 uM LFE158 (MEK mutants) or LIH720 (truncated p61-BRAFV600E).
(§3) For screening, cells were seeded in 80 ul of medium in 384-well plates (Thermo Scientific, cat#4332) at 500 (A-375) or 750 (WM-266-4) cell densities per well using a MultiDrop Combi (Thermo-Fisher) with an 8-channel standard cassette. To promote an even distribution of cells across the entire well, cells were briefly centrifuged at 1000 RPM and incubated at room temperature 30 minutes. All plates were incubated at 37° C., 5% CO2 for 24 h prior to compound addition. Compound stock was freshly prepared in the appropriate culture medium, and added using a PAA robot equipped with a 200n1 pin tool. In a minimum of three replicate wells, single agent and combination effects after 72 hours, were assessed by both quantification of cellular ATP levels via Cell Titer Glo (Promega) according to the manufacturer's protocol and by microscopy imaging. For imaging, cells were fixed to the plates and permeabilized with a solution of 10% PFA, 0.3% TX-100 in PBS via a WellMate dispenser with controlled dispensing speeds. Cell nuclei were stained with Hoechst 33342 (H3570, Invitrogen), and all necessary washing steps were performed by a BioTek washer.
(§4) Data comprised triplicate measurements for each treatment (compound) condition, 42 replicates of DMSO-treated wells, and duplicates of Staurosporin-treated wells. The data was normalized to the median of the DMSO measurements and summarized by calculating the median of the triplicates. Data was imported into Chalice to calculate compound synergies.

[2] = tested on: A-375 cells expressing mutant NRASQ61K; details: Homo sapiens, A-375 NRASQ61K, single agent
Experimental: as §1, §2, §3, §4

A-375 cells = details: Homo sapiens, A-375 parent, single agent
Experimental: as §1, §2, §3, §4

WM-266-4 cells = details: Homo sapiens, WM-266-4 parent, single agent
Experimental: as §1, §2, §3, §4

[3] = tested on: A-375 cells expressing mutant MEK1P124L; details: Homo sapiens, A-375 MEK1P124L, single agent
Experimental: as §1, §2, §3, §4

How did the pIC50 [1] turn out when `COC(=O)N[C@@H](C)CNc1nccc(-c2cn(C(C)C)nc2-c2cc(Cl)cc(NS(C)(=O)=O)c2F)n1` [Compound of Formula (I)] was run?
The pIC50 was 7.46.

And the pIC50 [2]?
The pIC50 was 6.87.

What about the pIC50 (A-375 cells) of the same compound?
The pIC50 was 8.40.

And the pIC50 (WM-266-4 cells)?
Its pIC50 is 8.70.

And the pIC50 [3]?
Its pIC50 is 6.48.

Source: US10548894B2, “Combination therapy” (Array BioPharma Inc., priority 2013, dated 2020)
